# Data from US12491188B2, “Small molecule PARG inhibitors and methods of use thereof” (Board of Regents, The University of Texas System, priority 2019, dated 2025).
# How the values were obtained:
# [1] = target: PARG proteins in PC3 cells (Homo sapiens (Human), UniProt Q86W56); assay: Cellular thermal shift assay (CETSA), PARG; type: cell-based; details: 10 μM, 2 h
# Experimental: (§1) PC3 cells treated with 10 μM JA2131 or DMSO were temperature shocked as described in the Examples and the resulting non-aggregated proteins were analyzed with Anti-PARG or Anti-PCNA antibody. Anti-Histone H3 was used as loading control.
# (§2) Cellular thermal shift assay (CETSA). CETSA was performed as described in Molina et al., 2013. Briefly, PC3 cells were treated with 10 μM JA2131 or an equivalent volume of DMSO for 2 h, washed three times with PBS and extracted for total cell lysate. 10% glycerol was added to the samples before subjecting to heat. Gradient thermal cycler (C1000 Touch, Bio-Rad) was used to heat samples at 42, 57, 66, 72, 77 and 85° C. for 3 min and chilled on ice for 5 min. Then, samples were centrifuged at 14,000 rpm for 20 min at 4° C. Supernatants were carefully removed and analyzed by Western blotting analysis.
# PCNA in PC3 cells = PCNA in PC3 cells (Homo sapiens (Human), UniProt P12004); assay: Cellular thermal shift assay (CETSA), PCNA control; type: cell-based; details: 10 μM, 2 h
# Experimental: as §1, §2
# [2] = system: PARP inhibitor resistant SUM149PT cells; assay: PAR and γH2AX high content imaging in PARPi resistant cells; type: cell-based, human; details: 10 μM, 2 hours, 3 Gy IR; four PARPi resistant clones and wild type
# Experimental: PARPi resistant SUM149PT cells clone 6, 10, 11, 18 together with the wild type (WT) were treated with 10 μM JA2131 for 2 hours, irradiated 3Gy ionizing radiation and then fixed, immunofluorescence labelled for PAR and γH2AX. High content imaging showing specific accumulation of PAR and DNA damage induction observed with γH2AX signal in cells treated with PARGi. (Right) Immunoblotting of total cell-lysates of PARP1i resistant SUM149PT cells showing no change in the PARG (upper panel) and p53 (middle panel) protein expression level. Anti-actin was used as loading control (bottom panel).
# PARG was evaluated as a therapeutic option for patients who become PARP1 inhibitor resistant. PARP1 inhibitor resistant SUM149PT triple negative breast cancer cell-lines were generated with 100 nM talazoparib for 5 constitutive days and then with 15-50 nM talazoparib until resistant cells grew into clones. The resulting resistant cell clones were propagated and expanded to generate PARP inhibitor resistant SUM149PT derivative cells that no longer responded to PARP1i treatment. It was then investigated whether the PARP resistant breast cancer cells would respond to the PARG inhibitors. Four PARPi resistant SUM149PT cell clones together with wild type cells were treated with JA2131. PAR accumulation and γH2AX foci formation were analyzed by high content imaging (FIG. 21).
# PARP1 = PARP1 (Homo sapiens (Human), UniProt P09874); assay: In vitro PARP1 auto-PARylation
# Sequence of PARP1 (P09874 whole entry): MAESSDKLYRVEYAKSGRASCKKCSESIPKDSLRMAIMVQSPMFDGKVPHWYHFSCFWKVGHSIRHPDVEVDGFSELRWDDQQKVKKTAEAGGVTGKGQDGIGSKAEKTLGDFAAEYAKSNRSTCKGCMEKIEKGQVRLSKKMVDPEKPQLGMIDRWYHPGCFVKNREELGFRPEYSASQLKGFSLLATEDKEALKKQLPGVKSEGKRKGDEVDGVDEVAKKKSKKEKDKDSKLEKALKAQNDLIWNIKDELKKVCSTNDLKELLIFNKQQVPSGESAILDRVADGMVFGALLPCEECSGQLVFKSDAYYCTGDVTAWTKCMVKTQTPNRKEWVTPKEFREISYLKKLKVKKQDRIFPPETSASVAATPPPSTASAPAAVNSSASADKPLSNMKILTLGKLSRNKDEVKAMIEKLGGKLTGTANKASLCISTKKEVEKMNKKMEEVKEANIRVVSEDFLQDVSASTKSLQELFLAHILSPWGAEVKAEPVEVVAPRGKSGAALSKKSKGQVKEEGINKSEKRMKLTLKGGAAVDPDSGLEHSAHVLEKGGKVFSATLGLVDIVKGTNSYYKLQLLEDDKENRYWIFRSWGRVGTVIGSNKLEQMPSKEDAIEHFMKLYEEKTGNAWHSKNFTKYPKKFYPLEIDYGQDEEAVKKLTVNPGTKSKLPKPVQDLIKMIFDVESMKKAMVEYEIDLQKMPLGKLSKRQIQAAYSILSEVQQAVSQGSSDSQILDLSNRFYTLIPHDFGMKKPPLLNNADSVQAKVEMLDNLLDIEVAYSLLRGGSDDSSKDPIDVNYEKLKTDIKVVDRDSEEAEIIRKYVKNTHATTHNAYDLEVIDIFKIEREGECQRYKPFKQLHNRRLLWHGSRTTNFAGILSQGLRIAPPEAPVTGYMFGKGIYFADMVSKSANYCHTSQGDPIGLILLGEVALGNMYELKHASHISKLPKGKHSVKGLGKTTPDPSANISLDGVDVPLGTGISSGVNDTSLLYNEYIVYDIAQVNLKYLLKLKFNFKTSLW
# Sequence of PCNA in PC3 cells (P12004 whole entry): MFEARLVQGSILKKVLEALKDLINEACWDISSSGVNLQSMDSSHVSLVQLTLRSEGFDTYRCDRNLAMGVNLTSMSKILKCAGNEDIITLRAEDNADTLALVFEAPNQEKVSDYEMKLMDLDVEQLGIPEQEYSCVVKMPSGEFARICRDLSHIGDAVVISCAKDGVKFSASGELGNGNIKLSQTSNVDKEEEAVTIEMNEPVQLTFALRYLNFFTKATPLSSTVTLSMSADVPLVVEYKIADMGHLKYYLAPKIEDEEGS
# Sequence of PARG proteins in PC3 cells (Q86W56 whole entry): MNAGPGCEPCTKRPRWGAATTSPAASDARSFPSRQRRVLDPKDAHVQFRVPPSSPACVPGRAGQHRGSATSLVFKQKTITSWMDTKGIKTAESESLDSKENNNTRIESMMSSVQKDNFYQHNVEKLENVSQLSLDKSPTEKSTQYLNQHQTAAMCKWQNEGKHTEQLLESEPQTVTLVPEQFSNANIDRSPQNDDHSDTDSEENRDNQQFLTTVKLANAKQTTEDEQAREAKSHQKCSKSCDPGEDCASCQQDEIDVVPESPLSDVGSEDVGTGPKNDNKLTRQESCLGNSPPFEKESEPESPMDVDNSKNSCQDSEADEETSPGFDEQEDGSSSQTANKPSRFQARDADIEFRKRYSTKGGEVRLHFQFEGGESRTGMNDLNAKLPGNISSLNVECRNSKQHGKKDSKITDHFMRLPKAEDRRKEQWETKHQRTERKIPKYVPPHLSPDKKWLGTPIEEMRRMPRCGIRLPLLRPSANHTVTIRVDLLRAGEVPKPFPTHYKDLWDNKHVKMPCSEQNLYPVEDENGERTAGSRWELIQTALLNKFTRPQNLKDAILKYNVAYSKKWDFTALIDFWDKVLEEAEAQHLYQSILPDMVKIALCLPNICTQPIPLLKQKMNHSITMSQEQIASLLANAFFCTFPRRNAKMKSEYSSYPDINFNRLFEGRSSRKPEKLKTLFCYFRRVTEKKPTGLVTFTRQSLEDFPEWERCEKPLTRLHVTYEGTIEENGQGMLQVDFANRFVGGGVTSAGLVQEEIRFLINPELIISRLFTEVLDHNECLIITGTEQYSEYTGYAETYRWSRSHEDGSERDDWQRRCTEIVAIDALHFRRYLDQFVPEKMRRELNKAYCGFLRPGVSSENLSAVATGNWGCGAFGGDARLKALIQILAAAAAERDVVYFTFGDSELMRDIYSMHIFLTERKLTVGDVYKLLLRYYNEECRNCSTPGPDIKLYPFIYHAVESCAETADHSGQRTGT
smiles,measurement,setting,value
O=C1C(Cl)=C(Cl)C(Cl)(Cl)C(Cl)=C1Cl [JA2131],thermal stabilization of PARG proteins in cells,[1],9 °C
same,change in thermal stability of PCNA control,PCNA in PC3 cells,no significant change
same,PAR accumulation and γH2AX staining,[2],increased PAR accumulation as well as γH2AX staining
same,concentration up to which PARP1 activation was not inhibited,PARP1; in vitro PARP1 auto PARylation,> 100 µM
same,effect on PARP1 auto-PARylation / PAR synthesis by PARP1,PARP1; increasing concentration of compound,no effect
